Measurements: patent US20090099192A1, “Substituted 1H-pyrrole-2,5-diones” (Bayer CropScience AG, priority 2004, published 2009)

How the values were obtained:
[1] = logP determination by HPLC on reversed-phase column (C 18), EEC Directive 79/831 Annex V.A8; assay type: physicochemical; conditions: reversed-phase C 18, 43° C., acid range (0.1% aqueous phosphoric acid, acetonitrile), marked a)
Outline: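 Reversed-phase C18 HPLC at 43° C, per EEC Directive 79/831 Annex V.A8, acid range: 0.1% aqueous phosphoric acid with linear 10–90% acetonitrile gradient. logP derived from retention time by linear interpolation between calibrating unbranched alkan-2-ones (C3–C16) of known logP.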

[2] = tested on: larvae of the mustard beetle (Phaedon cochleariae); assay: Phaedon larvae test (cabbage leaves dipped); assay type: in vivo
Outline: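 Cabbage (Brassica oleracea) leaves dipped in compound emulsion diluted in water to the test concentration, then infested with Phaedon cochleariae larvae while still moist. After the set period, % kill is scored (100% = all larvae dead, 0% = none).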

[3] = tested on: larvae of the mustard beetle (Phaedon cochleariae); assay: Phaedon test (spray treatment); assay type: in vivo
Outline: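 Chinese cabbage leaf disks sprayed with compound diluted in emulsifier-containing water, dried, then infested with mustard beetle larvae. After a set period, mortality scored in %: 100% all larvae dead, 0% none dead.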

[4] = tested on: caterpillars of the army worm (Spodoptera frugiperda); assay: Spodoptera frugiperda test (cabbage leaves dipped); assay type: in vivo
Experimental: (§1) [table] To produce a suitable preparation of active compound, 1 part by weight of active compound is mixed with the stated amount of solvent and the stated amount of emulsifier, and the concentrate is diluted with emulsifier-containing water to the desired concentration. Cabbage leaves (Brassica oleracea) are treated by being dipped into the active compound preparation of the desired concentration and populated with caterpillars of the army worm (Spodoptera frugiperda) while the leaves are still moist. After the desired period of time, the kill in % is determined. 100% means that all caterpillars have been killed; 0% means that none of the caterpillars have been killed.

[5] = tested on: caterpillars of the diamond back moth (Plutella xylostella); assay: Plutella test; assay type: in vivo
Experimental: as §1, with “amounts” for “amount”, “and” for “and the stated amount of”, “diamond back moth (Plutella xylostella)” for “army worm (Spodoptera frugiperda)”

[6] = tested on: caterpillars of the diamond back moth (Plutella xylostella, resistant strain); assay: Plutella test; resistant strain; assay type: in vivo
Experimental: (§2) To produce a suitable preparation of active compound, 1 part by weight of active compound is mixed with the stated amounts of solvent and emulsifier, and the concentrate is diluted with emulsifier-containing water to the desired concentration.
Cabbage leaves (Brassica oleracea) are treated by being dipped into the active compound preparation of the desired concentration and populated with caterpillars of the diamond back moth (Plutella xylostella, resistant strain) while the leaves are still moist.
After the desired period of time, the kill in % is determined. 100% means that all caterpillars have been killed; 0% means that none of the caterpillars have been killed.

[7] = tested on: common spidermite (Tetranychus urticae); assay: Tetranychus test; assay type: in vivo; conditions: 500 ppm, spray, Phaseolus vulgaris disks
Experimental: as §2
Disks of beans (Phaseolus vulgaris), which are infested by all stages of the common spidermite (Tetranychus urticae) are sprayed with an active compound preparation of the desired concentration.
After the desired period of time, the effect in % is determined. 100% means that all spidermites have been killed; 0% means that none of the spidermites have been killed.

[8] = tested on: caterpillars of the army worm (Spodoptera exigua); assay: Spodoptera exigua test; assay type: in vivo
Experimental: as §1, with “amounts” for “amount”, “and” for “and the stated amount of”, “exigua)” for “frugiperda)”

[9] = 500 ppm, leaf dip, Brassica oleracea

Structure (SMILES): O=C1C(O)=C(c2ccccc2Cl)C(=O)N1C1CCCC(C(F)(F)F)C1 (centres unmarked) [Example 214]
- logP [1]: logP = 3.53^a)
- activity in the Phaedon larvae test [2]: good activity
- Kill rate in % after 7 d [2, 9]: 100%
- activity in the Phaedon test (spray treatment) [3]: good activity
- Kill rate in % after 7 d ([3]; 100 g/ha, spray, Brassica pekinensis disks): 100%
- activity in the Spodoptera frugiperda test (leaf dip) [4]: good activity
- Kill rate in % after 7 d [4, 9]: 100%
- activity in the Plutella test [5]: good activity
- Kill rate in % after 7 d ([5]; 500 ppm, leaf dip): 100%
- activity in the Plutella test, resistant strain [6]: good activity
- Kill rate in % after 7 d ([6]; 500 ppm, leaf dip, resistant strain): 100%
- Kill rate in % after 5 d [7]: 90%
- activity in the Spodoptera exigua test [8]: good activity
- Kill rate in % after 7 d ([8]; 500 ppm, leaf dip): 100%
